In PubChem BioAssay AID248 (DTP/NCI, 2004):
Values joined by “and” are separate entries in the source; they are usually repeats but may differ in a detail not shown here. Equal entries are not always repeated. Inconclusive results and toxic doses are left out. Rule as the data show it: active = T/C of 150% or more; inactive = T/C below 125%.

Test system: L1210 leukemia ip in BDF1 mice, survival T/C
Experiment: NCI In Vivo Anticancer Drug Screen. Data for tumor model L1210 Leukemia (intraperitoneal) in B6D2F1 (BDF1) mice
Conditions: endpoint: mean survival time, higher = longer survival
Procedure, shortened: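 Ratio derived from survival: compound-dosed mice over vehicle-dosed mice, all bearing a transplantable tumor.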

[1] = dose: 75.0 mg/kg/injection, schedule: Q01DX001 (ip), vehicle: other
[2] = dose: 150.0 mg/kg/injection, schedule: Q01DX001 (ip), vehicle: other
[3] = dose: 100.0 mg/kg/injection, schedule: Q01DX001 (ip), vehicle: Klucel (hydroxypropylcellulose) (HPC)
[4] = dose: 200.0 mg/kg/injection, schedule: Q01DX001 (ip), vehicle: Klucel (hydroxypropylcellulose) (HPC)
[5] = dose: 100.0 mg/kg/injection, schedule: Q01DX001 (ip), vehicle: carboxymethylcellulose (CMC)
[6] = dose: 200.0 mg/kg/injection, schedule: Q01DX001 (ip), vehicle: carboxymethylcellulose (CMC)
[7] = dose: 400.0 mg/kg/injection, schedule: Q01DX001 (ip), vehicle: carboxymethylcellulose (CMC)

Measured: T/C

C#CC1(NC(=O)NC(C)(C)C)CCCCC1
inactive: dose: 100.0 mg/kg/injection, schedule: Q04DX002 (ip), vehicle: saline with Tween-80 97 % of control | dose: 200.0 mg/kg/injection, schedule: Q04DX002 (ip), vehicle: saline with Tween-80 97 % of control | dose: 400.0 mg/kg/injection, schedule: Q04DX002 (ip), vehicle: saline with Tween-80 97 % of control

CCCOC(=O)C(OC(=O)c1ccccc1)C(OC(=O)c1ccccc1)C(=O)OCCC (centres undefined)
inactive: dose: 100.0 mg/kg/injection, schedule: Q01DX001 (ip), vehicle: saline 104 % of control | dose: 200.0 mg/kg/injection, schedule: Q01DX001 (ip), vehicle: saline 96 % of control | dose: 400.0 mg/kg/injection, schedule: Q01DX001 (ip), vehicle: saline 94 % of control

C=C(C)C1CC(=O)C2(C)OC2C1 (centres undefined)
inactive: [1] 102 % of control | [2] 98 % of control | dose: 300.0 mg/kg/injection, schedule: Q01DX001 (ip), vehicle: other 94 % of control

O=C(Nc1cccc(C(F)(F)F)c1)N(CCO)Cc1ccccc1
inactive: [3] 104 % of control | dose: 100.0 mg/kg/injection, schedule: Q01DX009 (ip), vehicle: Klucel (hydroxypropylcellulose) (HPC) 100 % of control and 109 % of control | dose: 100.0 mg/kg/injection, schedule: Q04DX003 (ip), vehicle: Klucel (hydroxypropylcellulose) (HPC) 103 % of control | [4] 105 % of control | dose: 200.0 mg/kg/injection, schedule: Q01DX009 (ip), vehicle: Klucel (hydroxypropylcellulose) (HPC) 100 % of control and 114 % of control | dose: 200.0 mg/kg/injection, schedule: Q04DX003 (ip), vehicle: Klucel (hydroxypropylcellulose) (HPC) 99 % of control | dose: 400.0 mg/kg/injection, schedule: Q01DX001 (ip), vehicle: Klucel (hydroxypropylcellulose) (HPC) 102 % of control | dose: 400.0 mg/kg/injection, schedule: Q01DX009 (ip), vehicle: Klucel (hydroxypropylcellulose) (HPC) 93 % of control and 107 % of control | dose: 400.0 mg/kg/injection, schedule: Q04DX003 (ip), vehicle: Klucel (hydroxypropylcellulose) (HPC) 95 % of control

COc1ccc2c(c1)CCC1C2CCC2(C)C(=O)C(SC3=NC=NC4=NC=NC43)CC12 (centres undefined)
inactive: dose: 100.0 mg/kg/injection, schedule: Q01DX001 (sc), vehicle: steriod suspending solution 97 % of control | dose: 200.0 mg/kg/injection, schedule: Q01DX001 (sc), vehicle: steriod suspending solution 96 % of control | dose: 400.0 mg/kg/injection, schedule: Q01DX001 (sc), vehicle: steriod suspending solution 111 % of control

CCN(Cc1ccccc1)C(=O)Nc1cccc(Cl)c1
inactive: dose: 100.0 mg/kg/injection, schedule: Q01DX009 (ip), vehicle: other 106 % of control | dose: 200.0 mg/kg/injection, schedule: Q01DX009 (ip), vehicle: other 108 % of control | dose: 400.0 mg/kg/injection, schedule: Q01DX009 (ip), vehicle: other 105 % of control

CC(C)CCCC(C)C1CCC2C3CC4C(F)(Cl)C45CC4(CCC5(C)C3CCC12C)OCCO4 (centres undefined)
inactive: dose: 100.0 mg/kg/injection, schedule: Q04DX002 (ip), vehicle: other 87 % of control | dose: 200.0 mg/kg/injection, schedule: Q04DX002 (ip), vehicle: other 114 % of control | dose: 400.0 mg/kg/injection, schedule: Q04DX002 (ip), vehicle: other 93 % of control

CCCN=C(N)N=C(N)N
inactive: dose: 50.0 mg/kg/injection, schedule: Q01DX009 (ip), vehicle: water 108 % of control | dose: 100.0 mg/kg/injection, schedule: Q01DX001 (ip), vehicle: water 102 % of control | dose: 100.0 mg/kg/injection, schedule: Q01DX009 (ip), vehicle: water 95 % of control | dose: 100.0 mg/kg/injection, schedule: Q04DX003 (ip), vehicle: water 104 % of control | dose: 200.0 mg/kg/injection, schedule: Q01DX001 (ip), vehicle: water 102 % of control | dose: 200.0 mg/kg/injection, schedule: Q04DX003 (ip), vehicle: water 102 % of control | dose: 400.0 mg/kg/injection, schedule: Q01DX001 (ip), vehicle: water 102 % of control

CN(C)c1ccc(/C=C/C=N/N=C/c2ccccc2O)cc1
inactive: [1] 89 % of control | [2] 94 % of control

Oc1ccccc1/C=N/c1ccccn1
inactive: dose: 25.0 mg/kg/injection, schedule: Q01DX009 (ip), vehicle: Klucel (hydroxypropylcellulose) (HPC) 106 % of control | dose: 50.0 mg/kg/injection, schedule: Q01DX009 (ip), vehicle: Klucel (hydroxypropylcellulose) (HPC) 97 % of control

CN(C)c1ccc2nc(C(=O)O)c(=O)n(C)c2c1
inactive: [3] 101 % of control | [4] 97 % of control

Cc1ccc(S(=O)(=O)N=P(c2ccccc2)(c2ccccc2)c2ccccc2)cc1
inactive: dose: 50.0 mg/kg/injection, schedule: Q01DX001 (ip), vehicle: carboxymethylcellulose (CMC) 90 % of control | [5] 95 % of control | dose: 100.0 mg/kg/injection, schedule: Q04DX003 (ip), vehicle: saline with Tween-80 86 % of control | [6] 92 % of control | dose: 200.0 mg/kg/injection, schedule: Q04DX003 (ip), vehicle: saline with Tween-80 86 % of control | [7] 86 % of control | dose: 400.0 mg/kg/injection, schedule: Q04DX003 (ip), vehicle: saline with Tween-80 91 % of control

Cc1nc2c(NC(=O)CCl)nn(C)c2nc1C
inactive: dose: 50.0 mg/kg/injection, schedule: Q01DX009 (ip), vehicle: saline with Tween-80 98 % of control | dose: 100.0 mg/kg/injection, schedule: Q01DX009 (ip), vehicle: saline with Tween-80 98 % of control

CCCCCCC(/C=N\Nc1nnc(N/N=C\C(=C\c2ccccc2)CCCCCC)c2ccccc12)=C/c1ccccc1
inactive: dose: 50.0 mg/kg/injection, schedule: Q01DX001 (ip), vehicle: other 109 % of control | dose: 100.0 mg/kg/injection, schedule: Q01DX001 (ip), vehicle: other 103 % of control | dose: 200.0 mg/kg/injection, schedule: Q01DX001 (ip), vehicle: other 111 % of control | dose: 400.0 mg/kg/injection, schedule: Q01DX001 (ip), vehicle: other 105 % of control

O=C(Nc1ccccc1Cl)Oc1ccc(C2CCCCC2)cc1
inactive: dose: 100.0 mg/kg/injection, schedule: Q04DX002 (ip), vehicle: Klucel (hydroxypropylcellulose) (HPC) 103 % of control | dose: 200.0 mg/kg/injection, schedule: Q04DX002 (ip), vehicle: Klucel (hydroxypropylcellulose) (HPC) 98 % of control | dose: 400.0 mg/kg/injection, schedule: Q04DX002 (ip), vehicle: Klucel (hydroxypropylcellulose) (HPC) 98 % of control

O=C(CCl)N(O)c1ccc(/C=C/c2ccccc2)cc1
inactive: [5] 90 % of control | [6] 88 % of control | [7] 95 % of control

C#CC(C)(C)OCC1CO1 (centres undefined)
inactive: dose: 25.0 mg/kg/injection, schedule: Q01DX009 (ip), vehicle: saline 93 % of control | dose: 25.0 mg/kg/injection, schedule: Q04DX003 (ip), vehicle: saline 101 % of control | dose: 50.0 mg/kg/injection, schedule: Q01DX009 (ip), vehicle: saline 90 % of control | dose: 50.0 mg/kg/injection, schedule: Q04DX003 (ip), vehicle: saline 113 % of control | dose: 100.0 mg/kg/injection, schedule: Q01DX009 (ip), vehicle: saline 102 % of control | dose: 100.0 mg/kg/injection, schedule: Q04DX003 (ip), vehicle: saline 108 % of control | dose: 200.0 mg/kg/injection, schedule: Q01DX009 (ip), vehicle: saline 108 % of control | dose: 200.0 mg/kg/injection, schedule: Q04DX003 (ip), vehicle: saline 95 % of control | dose: 400.0 mg/kg/injection, schedule: Q01DX009 (ip), vehicle: saline 93 % of control | dose: 400.0 mg/kg/injection, schedule: Q04DX003 (ip), vehicle: saline 106 % of control
